From article PMC8080595, “Discovery of a novel RORγ antagonist with skin-restricted exposure for topical treatment of mild to moderate psoriasis” (Scientific Reports, 2021)

Assays:
[1] = biological target: T1, ADORA2A (Homo sapiens, UniProt P29274); assay: SAFETYscan47 Calcium Flux; format: cell-based; settings: 3 µM
T1 construct: purchased DiscoverX (Eurofins) SAFETYscan47
Method: To further profile any off-target activity, we counter-screened SHR168442 in SAFETYscan47 panel, compiled by DiscoverX based on the recommendation by major pharmaceutical companies. SHR168442 was screened at 3 µM in duplicates.

[2] = Oral PK in SD rats; format: in vivo; settings: male, rat, plasma, 2 mg/kg oral
Method: Compounds were dissolved in 5% DMSO, 5% tween 80 and then added 90% saline. Male SD rats were dosed with the compound via oral (2 mg/kg or 5 mg/kg) routes, respectively after fasting overnight. Blood of the animals were collected at indicated time post dosing. Blood samples were then prepared for plasma and analyzed for the compounds using validated LC/MS assays. The experimental protocol used in this study was approved by IACUC. The experiments were conducted in accordance with the Guiding Principles for the Care and Use of Laboratory Animals and complied with the ARRIVE guidelines.

[3] = test system: IL-17 secretion in mouse splenocyte; assay: Mouse IL-17 production assay using mouse splenocyte; format: cell-based; settings: Th17 differentiation, 72 h, n = 3, read-out: inhibition of secretion of IL-17 in mouse splenocyte, average IC50
Method: To evaluate the impact of SHR168442 on IL-17 secretion in mouse cells, the mouse Th17 cell differentiation kit from R&D Systems was used to polarize the mouse spleen cells. Differentiation of Th17 cells in mouse splenocyte for 72 h was confirmed by secretion of IL-17 in culture supernatant, 93 pg/mL in average (2.7 pg/mL without differentiation), a 34-fold increase of IL-17 secretion.
Mouse splenocytes (Zenbio) were stimulated by Mouse Th17 Differentiation Media (R&D Systems) according to the manufacturer’s protocol. On day 5, compounds were added and then incubated for 72 h, and IL-17 in the supernatant was measured using IL-17A homodimer (mouse) AlphaLISA detection kit (Perkin Elmer) according to the manufacturer’s protocol.

[4] = Liver microsomal stability, human; format: in vitro ADME; settings: human, liver microsomes, pH 7.4; 1 µM compound, 0.5 mg/ml microsome, NADPH, 37 °C; read-out: Liver microsomal stability, t1/2, Human
Method: The compound was mixed with 0.5 mg/ml human liver microsome (Thermal Fisher) at a final concentration of 1 µM in 100 mM potassium phosphate buffer, pH 7.4. The reactions were initiated by the addition of 1 mM NADPH. Samples in duplicate were incubated at 37 °C with mixing. 100 µL aliquots were transferred after 0, 5, 10, 30, 45, 60 minutes to a new tube with 300 µL acetonitrile, incubated on ice for 30 minutes, centrifuged at 1800×g at 4 °C for 10 minutes. The supernatants were transferred to glass vials subjected to LC/MS analysis. Peak areas were measured to calculate half-life according to the formula t1/2 = − 0.693/slope of linear regression analysis of ln [concentration] versus incubation time. Similar methods were applied to access mouse and rat liver microsomal stability of the compounds.

T1 sequence (P29274 whole entry): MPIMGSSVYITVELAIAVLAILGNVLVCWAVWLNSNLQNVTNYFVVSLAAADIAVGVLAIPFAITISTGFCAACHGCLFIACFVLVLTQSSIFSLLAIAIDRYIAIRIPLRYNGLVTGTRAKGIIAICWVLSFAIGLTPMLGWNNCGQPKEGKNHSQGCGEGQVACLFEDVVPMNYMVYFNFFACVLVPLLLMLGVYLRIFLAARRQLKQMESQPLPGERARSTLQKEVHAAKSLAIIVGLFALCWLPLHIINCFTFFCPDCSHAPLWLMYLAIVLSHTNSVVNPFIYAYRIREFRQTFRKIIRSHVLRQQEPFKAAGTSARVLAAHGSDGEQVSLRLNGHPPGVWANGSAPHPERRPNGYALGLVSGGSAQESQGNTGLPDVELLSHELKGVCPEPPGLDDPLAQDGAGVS

SMILES: CCS(=O)(=O)c1ccc([C@H](CCO)c2nc3c(Cl)c(N4CCC(F)(F)CC4)c(Cl)cc3[nH]2)cc1 [SHR168442, (S)-3-(4,6-dichloro-5-(4,4-difluoropiperidin-1-yl)-1H-benzo[d]imidazol-2-yl)-3-(4-(ethylsulfonyl)phenyl)propan-1-ol]
- % Response Average ([1]; Agonist): 7.3%
- % Response Replicate 1 ([1]; Agonist): 0.0%
- % Response Replicate 2 ([1]; Agonist): 14.7%
- % Response Average ([1]; Antagonist): 15.1%
- % Response Replicate 1 ([1]; Antagonist): 5.4%
- % Response Replicate 2 ([1]; Antagonist): 24.9%
- AUC ([2]; read-out: Exposure in SD Rat, AUC): 59 ng·h/mL
- Cmax ([2]; read-out: Exposure in SD Rat, Cmax): 9.5 ng/mL
- half-life ([2]; read-out: Exposure in SD Rat, t1/2 (converted)): 6.2 h
- IC50 [3]: 54 ± 12 nM
- half-life at 1 µM [4]: 2.3 min
